{
  "source": "patent US9549551B2",
  "about": "“Active compound combinations having insecticidal properties” (priority 2013, dated 2017)",
  "format_in_all_cases": "in vivo",
  "key": {"[1]": {"system": "mustard beetle larvae (Phaedon cochleariae)", "test": "Phaedon cochleariae - spray test", "conditions": "foliar, 144 h, read-out: Efficacy in % after 6d (mortality)", "text": "(§1) The expected activity for a given combination of two active compounds can be calculated according to S. R. Colby, Weeds 15 (1967), 20-22 as follows: • If • X is the efficacy expressed in % mortality of the untreated control for test compound A at a concentration of m ppm respectively m g/ha, • Y is the efficacy expressed in % mortality of the untreated control for test compound B at a concentration of n ppm respectively n g/ha, • E is the efficacy expressed in % mortality of the untreated control using the mixture of A and B at m and n ppm respectively m and n g/ha,\n(§2) If the observed insecticidal efficacy of the combination is higher than the one calculated as “E”, then the combination of the two compounds is more than additive, i.e., there is a synergistic effect.\nTo produce a suitable preparation of active compound, 1 part by weight of active compound is mixed with the stated amount of solvent and emulsifier, and the concentrate is diluted with emulsifier-containing water to the desired concentration. To produce a suitable preparation of a spore suspension the spores are diluted with emulsifier-containing water to the desired concentration.\nChinese cabbage (Brassica pekinensis) leaf-disks are sprayed with a preparation of the active ingredient of the desired concentration. Once dry, the leaf disks are infested with mustard beetle larvae (Phaedon cochleariae).\nAfter the specified period of time, mortality in % is determined. 100% means all beetle larvae have been killed and 0% means none of the beetle larvae have been killed. The mortality values determined thus are recalculated using the Colby-formula (see sheet 1)."}, "[2]": {"system": "green peach aphid (Myzus persicae)", "test": "Myzus persicae - spray test", "text": "as §1, §2\n(§3) To produce a suitable preparation of active compound, 1 part by weight of active compound is mixed with the stated amount of solvent and emulsifier, and the concentrate is diluted with emulsifier-containing water to the desired concentration.\nChinese cabbage (Brassica pekinensis) leaf-disks infected with all instars of the green peach aphid (Myzus persicae) are sprayed with a preparation of the active ingredient of the desired concentration.\nAfter the specified period of time, mortality in % is determined 100% means all aphids have been killed; 0% means none of the aphids have been killed. The mortality values determined thus are recalculated using the Colby-formula (see sheet 1)."}, "[3]": {"system": "larvae of the diamondback moth (Plutella xylostella)", "test": "Plutella xylostella - spray test", "conditions": "cabbage leaves", "text": "as §1, §2\nas §3, with “concentration Ammonium salt and/or penetration enhancer in a dosage of 1000 ppm are added to the desired concentration if necessary. […]” for “concentration.”\nAfter the specified period of time, the mortality in % is determined. […] The mortality values determined thus are recalculated using the Colby-formula (see sheet 1)."}},
  "note": "Like-named read-outs stand apart in the source and are kept apart here.",
  "data": [
    {"compound": "Cc1cc(C(F)(C(F)(F)F)C(F)(F)F)ccc1NC(=O)c1cccc(Cl)c1C(=O)NC(C)(C)C#N", "note": "[(I-5)]", "values": [
      {"measurement": "mortality at 2.5 g/ha", "setting": "[1]; 2.5 g ai/ha, Chinese cabbage leaf disks, 6 d", "result": 0, "unit": "%"},
      {"measurement": "mortality at 4 g/ha", "setting": "[1]; 4 g ai/ha, Chinese cabbage leaf disks, 6 d", "result": 0, "unit": "%"},
      {"measurement": "mortality at 12 g/ha", "setting": "[1]; 12 g ai/ha, Chinese cabbage leaf disks, 6 d", "result": 0, "unit": "%"},
      {"measurement": "mortality at 1.25 g/ha", "setting": "[2]; Myzus persicae, foliar, 144 h, 1.25 g ai/ha, Chinese cabbage leaf disks, 6 d, read-out: Efficacy in % after 6d (mortality)", "result": 0, "unit": "%"},
      {"measurement": "mortality at 1.5 g/ha", "setting": "[2]; Myzus persicae, foliar, 144 h, 1.5 g ai/ha, Chinese cabbage leaf disks, 6 d, read-out: Efficacy in % after 6d (mortality)", "result": 0, "unit": "%"},
      {"measurement": "mortality at 15 g/ha", "setting": "[2]; Myzus persicae, foliar, 144 h, 15 g ai/ha, Chinese cabbage leaf disks, 6 d, read-out: Efficacy in % after 6d (mortality)", "result": 0, "unit": "%"}
    ]},
    {"compound": "O=C(NCCc1ncc(C(F)(F)F)cc1Cl)c1ccccc1C(F)(F)F", "note": "[Fluopyram, fluopyram]", "values": [
      {"measurement": "mortality at 100 g/ha", "setting": "[1]; in Brassica rapa", "result": 0, "unit": "%"},
      {"measurement": "mortality at 50 ppm", "setting": "[3]; Plutella xylostella, 72 h, 50 ppm, 3 d, read-out: Efficacy in % after 3d (mortality)", "result": 0, "unit": "%"}
    ]},
    {"compound": "O=C1C=C(N(Cc2ccc(Cl)nc2)CC(F)F)CO1", "note": "[Flupyradifurone]", "values": [
      {"measurement": "Efficacy in % after 6d (mortality)", "setting": "[2]; 0.5 g ai/ha, Chinese cabbage leaf disks, 6 d", "result": 0, "unit": "%"},
      {"measurement": "Efficacy in % after 2d (mortality)", "setting": "[3]; 1.25 ppm, 2 d", "result": 0, "unit": "%"}
    ]},
    {"compound": "CC(c1ccc(C(F)(F)F)nc1)S(C)(=O)=NC#N", "note": "(stereo not shown) [Sulfoxaflor (II-13), Sulfoxaflor]", "values": [
      {"measurement": "mortality at 0.16 g/ha", "setting": "[1]; in Brassica rapa", "result": 0, "unit": "%"},
      {"measurement": "mortality at 12 g/ha", "setting": "[1]; in Brassica rapa", "result": 0, "unit": "%"},
      {"measurement": "mortality at 0.3 g/ha", "setting": "[2]; Myzus persicae, in Brassica rapa, foliar, 144 h, read-out: Efficacy in % after 6d (mortality)", "result": 70, "unit": "%"}
    ]}
  ]
}
